Consider one compound from publication PMC6161602, “Synthesis and characterisation of (Z)-styrylbenzene derivatives as potential selective anticancer agents” (Journal of Enzyme Inhibition and Medicinal Chemistry, 2018).

The subject of one data set is A549 lung cancer cell. Description: MTT cell growth inhibition assay, A549. It counts as cell-based, human. Put shortly:
(§1)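 48 h compound exposure (1/10/50/100 µM), DMEM or RPMI-1640 + 10% FBS, 37 °C. MTT 2 mg/mL final, 4 h; DMSO solubilisation; A492 read-out.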

The subject of another data set is HepG2 hepatoma cell. Description: MTT cell growth inhibition assay, HepG-2. It counts as cell-based, human. Put shortly: as §1
The subject of another data set is AGS cells. Description: MTT cell growth inhibition assay, AGS. Type of data set: cell-based, human. The method, boiled down:
as §1

Data set [1] concerns BEL-7402 cells. Description: MTT cell growth inhibition assay, BEL-7402. Type of data set: cell-based, human. The note with it: Homo sapiens; MTT, 48 h incubation, Bel-7402. The method, boiled down:
as §1

A further data set deals with HCT116 cells. Description: MTT cell growth inhibition assay, HCT116. It counts as cell-based, human. Put shortly: as §1
In another data set the test system is L-02 normal liver cell. Description: MTT cell growth inhibition assay, L-02 (normal). It counts as cell-based, human. As to conditions: Homo sapiens, 48 h incubation, L-02 normal cells. The method, boiled down: as §1
Data set [2] deals with HeLa cervical cancer cell. Description: MTT cell growth inhibition assay, HeLa. Type of data set: cell-based, human. The note with it: Homo sapiens, 48 h incubation. The method, boiled down:
as §1

The test system of data set [3] is MCF-10A normal breast cell. Description: MTT cell growth inhibition assay, MCF-10A (normal). It counts as cell-based, human. The note with it: Homo sapiens, 48 h incubation, MCF-10A normal cells. The method, boiled down:
as §1

A further data set has as its system MCF-7 breast cancer cell. Description: MTT cell growth inhibition assay, MCF-7. It counts as cell-based, human. Put shortly: as §1
Data set [4] relates to BEL-7402 cells. Description: Analysis of apoptosis by flow cytometry (Annexin V-FITC/PI). Type of data set: cell-based, human. The note with it: BEL-7402, 0.1 µM, 12 h; vehicle 4.7%. On the procedure: Apoptosis was detected using an apoptosis detection kit. BEL-7402 cells were plated in 6-well plates (5.0 × 10^5 cells/well) and incubated at 37 °C overnight. Exponentially growing cells were then incubated with 6h at either 0.01 or 0.1 µM, or taxol at 0.1 µM. Vehicle group was treated with 0.1% DMSO. Following 12 h of incubation, cells were analysed for apoptosis as previously described, using a FACSCalibur flow cytometer with Cell Quest software (Becton-Dickinson, Franklin Lakes, NJ, USA).
A general note: In flow cytometry, cells or beads pass a laser one at a time.

Data set [5] relates to BEL-7402 cells. Description: Transwell cell migration assay. It counts as cell-based, human. The note with it: BEL-7402, transwell, 24 h, 0.1 or 0.5 µM. How it is done:
Quantitative cell migration was performed using 24-well Boyden chambers (Corning, NY, USA) as described. Briefly, transwells with 8-µm pore size filters were inserted into 24-well plates. RPMI-1640 (500 µL) containing 10% FBS was added to the lower chamber, and 100 µL of a serum-free cell suspension (1 × 10^5 cells) was placed in the upper chamber. The BEL-7402 cells were pre-treated with indicated concentrations of 6h, taxol, or DMSO. The plates were incubated at 37 °C with 5% CO2 for 24 h, and the cells on the upside were removed using cotton swaps. After several rinses, the cells adhering in the lower layer of insert were fixed with methanol and stained with 1× crystal violet solution. The number of migrated cells in nine randomly selected fields from triplicate chambers was counted in each experiment under a phase-contrast microscope at 200× magnification.

The subject of data set [6] is BEL-7402 cells. Description: Colony formation assay. As to conditions: BEL-7402, exposure > 10 days, fitted from inhibition ratio of colony formation. It counts as cell-based, human. How it is done:
A previously described colony formation assay was used[7] with slight modification. 1 × 10^4 BEL-7402 cells/well were seeded into 6-well plates and then stimulated with the indicated concentration of 6h, taxol, or DMSO. The plates were removed from incubation when colonies were large enough to count (>50 cells). Colonies were then fixed and stained with 1 × Giemsa solution, rinsed, allowed to dry, and counted. All the experiments were repeated independently at least three times. The LD50 value for 6h was determined using SigmaPlot II.

In data set [7] the test system is BEL-7402 cells. Description: Trypan blue staining. Type of data set: cell-based. The note with it: 0.001 µM to 10 µM, data not shown. On the procedure: Trypan blue staining was used to further investigate the cytotoxicity of 6h.
The subject of a further data set is cyclin A. Description: Western blotting, cyclin A. It counts as cell-based, human. The note with it: BEL-7402, 12 h, immunoblot, dose-dependent. How it is done:
(§2) BEL-7402 cells were harvested in logarithmic growth phase and the adherent and floating cells were collected after 12 h of drug treatment. The collected cells were resuspended in cold RIPA buffer (100 mM NaCl, 100 mM Tris (pH7.4), 10% Triton X-100, 1 mM PMSF, pH7.5) with 0.1 µM leupetin protease inhibitor as well as 1 µg/mL pepstatin and cracked on ice for 30 min. Then according to the reference to did immunoblotting assay.
(A western blot detects proteins with antibodies after separation by electrophoresis.)

The next data set concerns cyclin B1. Description: Western blotting, cyclin B1. Type of data set: cell-based, human. The note with it: BEL-7402, 12 h, immunoblot. On the procedure: as §2

SMILES strings stand for the structures.

As usually defined, the IC50 is the concentration that gives 50% inhibition. On to `COc1cc(/C(C#N)=C/c2ccc(C)cc2)cc(OC)c1OC` [Compound 6h, (Z)-3-(p-Tolyl)-2-(3,4,5-trimethoxyphenyl)acrylonitrile], for which the IC50 is 530 ± 23 nM in the data set on A549 lung cancer cell (Homo sapiens, MTT, 48 h incubation, A549); 3740 ± 1730 nM with HepG2 hepatoma cell (Homo sapiens, HepG2, MTT, 48 h incubation, HepG-2); 510 ± 450 nM in the data set with AGS cells (Homo sapiens, MTT, 48 h incubation, AGS); 150 ± 30 nM with BEL-7402 cells [1]; 610 ± 160 nM in the data set with HCT116 cells (Homo sapiens, HCT-116, MTT, 48 h incubation, HCT116); more than 100000 nM in the data set on L-02 normal liver cell. Besides, the IC50 in data set [2] is more than 100000 nM; in data set [3], 9450 ± 5250 nM; in the data set with MCF-7 breast cancer cell (Homo sapiens, MCF7, MTT, 48 h incubation, MCF-7), 2610 ± 980 nM. Also, in the data set with A549 lung cancer cell (selectivity index, IC50 (L-02)/IC50 (A549)), the “SI IC50 (L-02/A549)” value is recorded as more than 188.6. The “SI IC50 (L-02/HepG-2)” value in the data set with HepG2 hepatoma cell (selectivity index, IC50 (L-02)/IC50 (HepG-2)) is recorded as more than 26.7. In the data set with AGS cells (selectivity index, IC50 (L-02)/IC50 (AGS)), the “SI IC50 (L-02/AGS)” value is listed as more than 196.0. Further, the “SI IC50 (L-02/HCT116)” value with HCT116 cells (selectivity index, IC50 (L-02)/IC50 (HCT116)) was more than 163.9. In addition, the “SI IC50 (MCF-10A/MCF-7)” value with MCF-7 breast cancer cell (selectivity index, IC50 (MCF-10A)/IC50 (MCF-7)) is more than 3.6. Besides, the “total apoptotic cells (early + late apoptotic cells)” value with BEL-7402 cells [4] is recorded as 10.2%. Moreover, the “migration ratio compared with the control group” value in the data set on BEL-7402 cells [5] was “markedly decreased”. Moreover, the “LD50 (colony formation)” value with BEL-7402 cells [6] was 0.056 ± 0.0047 µM. For the same compound, in the data set with BEL-7402 cells [7], the “percentages of dead cells (trypan blue)” value is listed as “negligible”. For the same compound, the “expression of cyclin A compared with the vehicle group” value in the data set with cyclin A is on record as “lower expression”. In addition, in the data set with cyclin B1, the “expression of cyclin B1 compared with vehicle or 0.1 µM of taxol” value is on record as “increased expression”.
